Structures are written as SMILES. pIC50: −log10 of the molar value.

We go through nine molecules from article PMC9762759, “High-throughput discovery of novel small-molecule inhibitors of acid Ceramidase” (Journal of Enzyme Inhibition and Medicinal Chemistry, 2022).

For one assay, the target named is T1, acid ceramidase (AC) (Homo sapiens, UniProt Q13510).
T1 construct: expressed in transfected cells
T1 sequence (Q13510 22-395): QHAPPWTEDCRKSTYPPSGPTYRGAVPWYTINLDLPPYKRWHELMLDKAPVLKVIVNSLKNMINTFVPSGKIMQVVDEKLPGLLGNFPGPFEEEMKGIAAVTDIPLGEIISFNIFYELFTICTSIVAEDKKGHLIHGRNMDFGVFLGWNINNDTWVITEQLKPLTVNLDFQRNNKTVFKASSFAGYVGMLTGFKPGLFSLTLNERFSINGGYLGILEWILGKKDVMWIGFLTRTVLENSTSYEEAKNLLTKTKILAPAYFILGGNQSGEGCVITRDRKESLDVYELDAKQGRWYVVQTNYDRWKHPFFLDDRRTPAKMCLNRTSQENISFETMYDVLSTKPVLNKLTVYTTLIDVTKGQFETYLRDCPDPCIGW
Description: Acid ceramidase HTS assay, 384-well fluorogenic (RBM14-C12), cell lysates. It is filed as biochemical. The note with it: for pIC50: dose-titration, 8-point two-fold dilution from 200 micromolar, 95% confidence interval in brackets, means of three replicates; for inhibition at 20 µM: primary assay, single-point concentration of 20 μM, lysates of AC-overexpressing A375 melanoma cells, substrate RBM14-C12 20 µM, pH 4.5. The procedure:
To start with, the final reaction volume was adapted from 100 µL (96-well-format) to 32 µL (384 well-format) with a final concentration of substrate of 20 µM. Next, protein concentration was adjusted using cell lysates of AC-overexpressing A375 melanoma cells. Ideally, the optimal amount of protein is the one that ensures reaction linearity over a period of time together with less than 10% of substrate depletion, in order to assume that the enzyme operates at steady-state conditions. Thus, different amounts of cell lysates were mixed with the substrate and product formation was measured over 1 h. […] Finally, an amount of 0.4 µg of protein was chosen, as higher amounts of proteins were not in the linear portion whereas lower amounts would compromise the signal window. The optimal incubation time of the reaction mixture was next explored. […] As a first validation step, we performed a control run consisting of 60 wells representing AC activity and 60 wells representing the signal in absence of the enzyme. […] The calculated coefficients of variation (CV) for both the high and low controls were 6.08% and 17.1% respectively.
After having successfully established the optimal reaction conditions in a 384-well format, we employed this newly miniaturised AC assay in a pilot screen against a library of 4100 compounds. The screen was carried out at a single dose of 20 µM for each library compound in 6% DMSO (v/v) and in duplicate. The acid ceramidase inhibitor SOCLAC was used as a pharmacological control for the assay. The Z’-factor per plate were consistent with those obtained during the initial validation. […] An example hit map from one screening plate is shown (Figure 2(C)). The inhibitory activity of these hits was then validated in an additional assay performed at a single-point concentration in triplicates.
To confirm the results from the primary screening, top hits were cherry-picked and tested in a concentration-dependent response assay with triplicates per sample. Thus, 101 compounds were then subjected to 8-points two-fold dilution series starting at a maximum concentration of 200 micromolar.
(§1) The A375 cell line stably overexpressing ASAH1 under the control of a tetracycline/doxycycline-responsive promoter was kindly provided by Dr. Carmen Bedia and Prof. Thierry Levade[17]. The antibiotic selection of this cell line was performed with blasticidin (3 µg/mL) and hygromycin B (250 µg/mL). Ectopic expression of AC was induced with doxycycline at 1 µg/mL for 24 h before use. Cells were suspended in the appropriate volume of a 0.25 M saccharose solution with the proteases inhibitors aprotinin (1 mg/mL), leupeptin (1 mg/mmL) and PMSF (100 mM). The suspension was submitted to three cycles of a 5 s sonication (probe) at 10 watts/5 s resting on ice. The cell lysate was centrifuged at 600 g for 5 min. The supernatant was collected and protein concentration was determined with BSA as a standard using the bicinchoninic acid (BCA) protein determination kit (Thermo Scientific) according to the manufacturer’s instructions.
A previously described 96-well plate assay[25] was miniaturised into a 384-well plate format with a final reaction volume of 32 µL. Plated compounds were diluted with a mixture of DMSO/H2O (1.6 µL/18 µL), and after centrifugation, 3.2 µL were dispensed into a new 384-well plate, so that the final concentration of the compound in the final reaction volume of 32 µL was 20 µM and the DMSO content of the assay was 1%. Next, 20.8 µL of a substrate solution of RBM14-C12 in sodium acetate buffer (25 mM, pH 4.5) was added for a final concentration of 20 µM, followed by the addition of 8 µL of a 0.25 M sucrose solution of cell lysates from AC-overexpressing A375 melanoma cells containing 0.4 µg of protein The reaction was terminated after 60 min incubation at 37 °C by adding 8 µL of methanol. Oxidation was performed by treatment with 32 µL of a [2.5 mg/mL] solution of NaIO4 in 100 mM glycine-NaOH buffer (pH 10.6). […]

The target in assay [1] is T2, recombinant human NC (rhNC) (Homo sapiens, UniProt Q9NR71).
T2 construct: purchased R&D Systems
T2 sequence (Q9NR71 whole entry): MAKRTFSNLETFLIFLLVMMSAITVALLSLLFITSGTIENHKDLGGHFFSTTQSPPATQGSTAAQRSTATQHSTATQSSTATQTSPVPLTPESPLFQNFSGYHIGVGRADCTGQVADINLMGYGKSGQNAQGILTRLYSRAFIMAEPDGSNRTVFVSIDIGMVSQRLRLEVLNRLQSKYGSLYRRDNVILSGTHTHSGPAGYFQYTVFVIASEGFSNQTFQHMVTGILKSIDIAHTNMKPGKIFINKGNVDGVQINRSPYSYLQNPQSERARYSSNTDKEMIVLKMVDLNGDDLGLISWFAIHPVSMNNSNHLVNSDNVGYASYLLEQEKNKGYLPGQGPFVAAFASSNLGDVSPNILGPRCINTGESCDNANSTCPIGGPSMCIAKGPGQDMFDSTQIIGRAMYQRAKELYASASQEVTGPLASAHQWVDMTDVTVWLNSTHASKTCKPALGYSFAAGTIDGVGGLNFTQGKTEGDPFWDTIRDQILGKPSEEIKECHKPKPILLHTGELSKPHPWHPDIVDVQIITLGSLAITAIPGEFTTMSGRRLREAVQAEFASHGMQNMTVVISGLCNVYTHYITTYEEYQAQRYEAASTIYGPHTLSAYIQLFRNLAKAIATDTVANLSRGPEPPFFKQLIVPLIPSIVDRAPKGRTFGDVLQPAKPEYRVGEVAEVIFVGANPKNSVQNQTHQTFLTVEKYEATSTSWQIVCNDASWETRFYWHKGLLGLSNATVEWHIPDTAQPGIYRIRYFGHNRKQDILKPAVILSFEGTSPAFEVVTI
Description: Neutral ceramidase assay, fluorogenic substrate RBM14-C24:1. It is filed as biochemical. To be noted: single-point concentration of 50 μM; means of three replicates. How it is done: As mentioned above, hydrolysis of ceramides occurs by the action of ceramidases which are encoded by five known genes and are distinguished by the pH required for optimal activity. A common problem with AC inhibitors, especially those one with a scaffold related to the structure of ceramide, is the lack of selectivity over other ceramidases. Thus, to discard a selectivity issue, the activity of nine detected hits against neutral ceramidase was next explored at 50 µM. Activity over NC was tested using recombinant human NC (rhNC) and a specific NC substrate bearing a nervonic acid amide (RBM14-C24:1)[30]. Remarkably, none of the molecules elicited a significant inhibitory activity, thereby confirming the selective inhibition of AC over NC (Supplemental Table 1).
The NC assay was performed in 96-well plates at a final volume of 100 µL/well. Reaction buffers was 25 mM phosphate buffer 150 mM NaCl 1% (NaChol) pH 7.4. The reaction mixtures contained 25 µL/well of protein (5 ng recombinant NC R&D Systems, >95% pure), 70 µL/well of substrate (prepared from 4 mM stock solutions in ethanol) and 5 µL/well of inhibitor (prepared from 1 mM stock solutions in DMSO/H2O). Reaction mixtures were incubated at 37 °C for 1 h and reactions were stopped with 25 µL/well of MeOH followed by 100 µL/well of NaIO4 (2.5 mg/mL in 100 mM glycine-NaOH buffer, pH 10.6). After incubation at 37 °C for 1 h in the dark, 100 µL/well of 100 mM glycine-NaOH buffer (pH 10.6) was added and fluorescence was measured spectrophotometrically at excitation and emission wavelenght of 355 and 460 nm, respectively. The same reaction mixtures without enzymes were used as blanks.

Assay [2] addresses T3, acid ceramidase in AC overexpressing A375 cells (Homo sapiens, UniProt Q13510).
T3 construct: expressed in transfected cells
T3 sequence (Q13510 22-395): T1 sequence (Q13510 22-395)
Briefly: Fluorogenic ceramidase activity assay in intact cells (RBM14-C12). It is filed as cell-based. The note with it: for inhibition at 20 µM: A-375, single-point concentration of 20 µM, 3 h, triplicate. The procedure: Cell-based assays allow evaluating biological activity in a more physiologically relevant system that also considers additional factors that might have a positive impact on inhibitory potency such as permeabilization through cellular membranes, metabolisation or concentration by intracellular compartmentalisation. Thus, the activity of the nine selected hits was next examined in intact cells using AC overexpressing A375 cells and the fluorogenic substrate RBM14-C12. First, compounds were tested in a primary screening assay. Measurements were performed in triplicated at a single-point concentration of 20 µM.
as §1
To determine activity in intact cells, 2 × 10^4 cells/well were seeded in 96-well plates 24 h prior to the assay and maintained at 37 °C and 5% CO2. Overexpression of AC was induced with doxycycline at 1 µg/mL for 24 h. […] After incubation at 37 °C for 1 h in the dark, 100 µL/well of 100 mM glycine-NaOH buffer (pH 10.6) were added and fluorescence was measured spectrophotometrically at excitation and emission wavelengths of 355 and 460 nm, respectively. […]

What is called pIC50 is the negative decadic logarithm of the IC50, by convention in mol/L. As a reminder, the inhibition is the drop in the measured response relative to a control, in per cent. With `CN(CCc1ccccn1)S(=O)(=O)c1cccc(Br)c1` [W000113402_C12], the pIC50 was 4.97 against acid ceramidase (AC) and 4.49 in assay [2] (interval (24.3–44.7) printed, read-out: IC50 in the cell-based assay). Moreover, the values for the inhibition at 20 µM (against acid ceramidase (AC); in assay [2]) were 75.5% and 53%, respectively. Besides, in assay [1], the inhibition at 50 µM was -5.9%.

Turning to `CC1CCCCN1C(=O)Nc1ccc(Oc2ccccc2)cc1` (centres unmarked) [W000113402_O07], on acid ceramidase (AC), the pIC50 was 5.10 and the inhibition at 20 µM was 53.8%. Besides, the inhibition at 50 µM in assay [1] was 8.5%.

Consider `CCCCc1ccc(C(=O)CCC2C(=O)c3ccccc3C2=O)cc1` [W000113414_D15], for which, at acid ceramidase (AC), the pIC50 was 4.44 and the inhibition at 20 µM came to 60.4%. The inhibition at 50 µM in assay [1] was -1.3%.

In the case of `CCC(CC)(c1ccc(OCC2(C(C)(C)C)OCCO2)c(C)c1)c1cc(C)c2oc(C(=O)NCC(=O)O)cc2c1` [W000113414_I13], the inhibition at 20 µM at acid ceramidase (AC) worked out at 67.4%. For the same molecule, the inhibition at 50 µM in assay [1] came out at 22.9%.

On acid ceramidase (AC), `Cc1cc(O[C@H](c2ccc(C(=O)NC[C@H](O)C(=O)O)s2)C(C)C)cc(C)c1-c1ccc(C(F)(F)F)cc1` [W000113414_H19] showed a pIC50 of 4.95. Further, the figures for the inhibition at 20 µM (against acid ceramidase (AC); in assay [2]) were 61.4% and 32%, respectively. Also, in assay [1], the inhibition at 50 µM is -8.9%.

Consider `CC(C)(C)CC(=O)N1CCN(c2cccc(C(F)(F)F)c2)CC1` [W000113414_C16], for which, at acid ceramidase (AC), the pIC50 is 4.31 and the inhibition at 20 µM was determined as 59%. Further, in assay [1], the inhibition at 50 µM was -4.1%.

In the case of `C=CCNC(=S)Nc1ccc(Cl)c([N+](=O)[O-])c1` [W000113403_I18], at acid ceramidase (AC), the pIC50 was 4.97 and the inhibition at 20 µM was 63.4%. For the same molecule, in assay [1], the inhibition at 50 µM worked out at 23.4%.

For the molecule `CC(OC(=O)c1c2c(nc3ccccc13)/C(=C/c1cccs1)CC(C(C)(C)C)C2)C(=O)Nc1ccc(C(N)=O)cc1` (centres unmarked) [W000113400_H06], at acid ceramidase (AC), the pIC50 was 4.80 and the inhibition at 20 µM was 41.7%. Further, in assay [1], the inhibition at 50 µM amounted to 35.6%.

`Cc1ccc(CN2CC(C(=O)N(C)Cc3ccc(Cl)c(Cl)c3)CC2=O)cc1` (centres unmarked) [W000113407_J11]: on acid ceramidase (AC), the pIC50 is 4.62 and the inhibition at 20 µM is 59.2%. The inhibition at 50 µM in assay [1] amounted to 20.8%.
